Experimental data reported in patent US12723074B2, “Medicament for treatment and/or prevention of cancer” (TORAY INDUSTRIES, INC., priority 2020, dated 2026).

How the values were obtained:
[1] = tested on: Human breast cancer cells BT474; assay: Antitumor effect in human breast cancer BT474-bearing NOG mice (combination with axitinib); format: in vivo; conditions: day 63 after cancer bearing
Procedure: Likewise, in vivo antitumor effect in cancer-bearing mouse was evaluated by administering a combination of the anti-CAPRIN-1 antibody (anti-CAPRIN-1 humanized antibody #1) produced in Example 1, and an anti-vascular endothelial growth factor receptor (VEGFR) inhibitor.
Specifically, the antitumor effect of the combination of the anti-CAPRIN-1 antibody and axitinib according to the present invention was studied using NOG mice in which human-derived cancer cells expressing CAPRIN-1 protein were subcutaneously transplanted. Human breast cancer cells BT474 were subcutaneously transplanted at 2×10^7 cells per mouse as a mixture with Matrigel and allowed to grow until a tumor became approximately 100 mm^3 to prepare cancer-bearing mice. Each anti-CAPRIN-1 antibody produced in Example 1 was administered at 10 mg/kg once a week to the tail veins of five cancer-bearing mice described above. To these mice, administration of axitinib was started simultaneously with the initial administration of the anti-CAPRIN-1 antibody, and the administration was performed at 5 or 25 mg/kg twice a day for 9 days and then once a day for 15 days.
For a comparative control group, the same dose of the same anti-CAPRIN-1 antibody as above was administered once a week to cancer-bearing mice. For another comparative control group, axitinib was administered at the same administration intervals and dose as above to other individuals of cancer-bearing mice. Cancer-bearing mice in a non-treatment group were used as negative controls. After the start of administration, the sizes of cancers in the cancer-bearing mice were measured over time using calipers. Tumor volumes were calculated according to a standard method using a calculation expression: (Length of the major axis of the tumor)×(Length of the minor axis of the tumor)^2×0.5.

[2] = tested on: gastroesophageal junction cancer or gastric adenocarcinoma; conditions: RAINBOW trial patients; cited from earlier work
[3] = tested on: Human breast cancer cells BT474; assay: Antitumor effect in human breast cancer BT474-bearing NOD-SCID mice (combination with bevacizumab); format: in vivo; conditions: day 41 after cancer bearing, antibody 10 mg/kg once a week, bevacizumab 1.25 mg/kg once a week
Procedure: Human breast cancer cells BT474 were subcutaneously transplanted at 2×10^7 cells per mouse as a mixture with Matrigel (Sigma) and allowed to grow until a tumor became approximately 100 mm^3 to prepare cancer-bearing mice.
For a comparative control group, the same dose of the same anti-CAPRIN-1 antibody as above was administered once a week to cancer-bearing mice. […] Cancer-bearing mice in a non-treatment group were used as negative controls. After the start of administration, the sizes of cancers in the cancer-bearing mice were measured over time using calipers. Tumor volumes were calculated according to a standard method using a calculation expression: (Length of the major axis of the tumor)×(Length of the minor axis of the tumor)^2×0.5.

[4] = biological target: T1, CAPRIN-1 on the cell membrane surface of human cancer cells (Homo sapiens, UniProt Q14444); assay: Flow cytometry reactivity with cell membrane surface of human cancer cells expressing CAPRIN-1; format: binding; conditions: human cancer cells BT-474, HT-29, QG56, H1650, NCI-N87, HEC-1-A, 22Rv1, Panc10.5, Hep3B, SKOV3, Caki-2, U-87MG, T24, OE33, OCI-AIM5, Ramos, TGBC14TKB, HT-1080, G-361
T1 construct: endogenous in cells; host or cells: BT-474, HT-29, QG56, H1650, NCI-N87, HEC-1-A, 22Rv1, Panc10.5, Hep3B, SKOV3, Caki-2, U-87MG, T24, OE33, OCI-AIM5, Ramos, TGBC14TKB, HT-1080, G-361
T1 sequence (Q14444 1-709): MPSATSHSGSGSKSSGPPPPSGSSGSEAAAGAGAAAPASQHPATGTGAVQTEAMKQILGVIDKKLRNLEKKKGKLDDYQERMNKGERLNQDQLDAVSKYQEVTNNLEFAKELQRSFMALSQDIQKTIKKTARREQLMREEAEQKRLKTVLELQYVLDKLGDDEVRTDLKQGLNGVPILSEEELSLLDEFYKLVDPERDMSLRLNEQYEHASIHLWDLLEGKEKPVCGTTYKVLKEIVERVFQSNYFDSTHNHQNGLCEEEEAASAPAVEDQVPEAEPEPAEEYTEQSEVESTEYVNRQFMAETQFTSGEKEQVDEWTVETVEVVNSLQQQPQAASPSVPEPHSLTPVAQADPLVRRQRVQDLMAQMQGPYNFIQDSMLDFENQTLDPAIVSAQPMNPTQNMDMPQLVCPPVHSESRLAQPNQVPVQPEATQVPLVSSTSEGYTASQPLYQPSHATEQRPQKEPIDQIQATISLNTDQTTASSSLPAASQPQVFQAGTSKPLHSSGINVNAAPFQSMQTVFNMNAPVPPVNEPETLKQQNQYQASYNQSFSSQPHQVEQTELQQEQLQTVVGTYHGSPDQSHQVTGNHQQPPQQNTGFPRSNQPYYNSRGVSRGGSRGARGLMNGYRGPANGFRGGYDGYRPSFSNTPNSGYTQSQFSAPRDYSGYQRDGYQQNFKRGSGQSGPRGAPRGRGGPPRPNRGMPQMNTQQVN
Source text: Reactivity of each monoclonal antibody with human cancer cells confirmed to express CAPRIN-1 protein on the cell membrane surface was further confirmed by flow cytometry.
(§1) The reactivity of the anti-CAPRIN-1 antibody with cancer cells without permeation treatment of cell membrane was examined by flow cytometry to confirm that a portion of CAPRIN-1 was expressed on the cell membrane surface of cancer cells as shown in Examples given below.

[5] = biological target: T2, CAPRIN-1 on the cell membrane surface of mouse kidney cancer cells (Renca) and mouse breast cancer cells (4T1) (Mus musculus, UniProt Q60865); assay: Flow cytometry reactivity with cell membrane surface of mouse cancer cells expressing CAPRIN-1; format: binding; conditions: mouse cancer cells Renca and 4T1
T2 construct: endogenous in cells; host or cells: Renca, 4T1
T2 sequence (Q60865 1-707): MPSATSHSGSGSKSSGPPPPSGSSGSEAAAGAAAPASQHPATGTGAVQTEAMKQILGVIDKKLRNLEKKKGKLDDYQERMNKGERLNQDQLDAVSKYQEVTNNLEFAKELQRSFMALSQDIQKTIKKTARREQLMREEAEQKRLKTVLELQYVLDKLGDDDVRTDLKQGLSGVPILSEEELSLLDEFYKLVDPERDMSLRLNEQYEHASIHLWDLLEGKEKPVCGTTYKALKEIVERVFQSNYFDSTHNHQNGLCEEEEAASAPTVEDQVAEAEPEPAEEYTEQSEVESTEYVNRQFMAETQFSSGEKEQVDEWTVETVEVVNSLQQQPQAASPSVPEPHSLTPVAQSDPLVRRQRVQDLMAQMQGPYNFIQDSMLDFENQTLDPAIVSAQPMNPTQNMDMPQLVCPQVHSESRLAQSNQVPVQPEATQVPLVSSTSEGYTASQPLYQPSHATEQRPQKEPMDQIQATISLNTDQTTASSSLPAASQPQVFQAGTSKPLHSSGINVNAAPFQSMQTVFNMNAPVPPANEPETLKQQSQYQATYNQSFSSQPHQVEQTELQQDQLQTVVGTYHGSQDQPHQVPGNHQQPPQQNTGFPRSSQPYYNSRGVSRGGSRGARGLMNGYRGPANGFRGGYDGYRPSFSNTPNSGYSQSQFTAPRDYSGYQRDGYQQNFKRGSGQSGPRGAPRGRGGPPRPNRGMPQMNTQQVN
Source text: as §1

Molecule: CNC(=O)c1ccccc1Sc1ccc2c(/C=C/c3ccccn3)n[nH]c2c1 [axitinib]
- tumor volume when the tumor volume of the negative control was defined as 100% ([1]; axitinib 5 mg/kg (alone or with antibody 10 mg/kg once a week)): 39%
- tumor volume when the tumor volume of the negative control was defined as 100% ([1]; axitinib 25 mg/kg (alone or with antibody 10 mg/kg once a week)): 27%

Molecule: CC(=O)O[C@H]1C(=O)[C@@]2(C)[C@H]([C@H](OC(=O)c3ccccc3)[C@]3(O)C[C@H](OC(=O)[C@H](O)[C@@H](NC(=O)c4ccccc4)c4ccccc4)C(C)=C1C3(C)C)[C@]1(OC(C)=O)CO[C@@H]1C[C@@H]2O [paclitaxel]
- median overall survival [2]: 7.4 months
- median progression-free survival [2]: 2.9 months

B1: anti-CAPRIN-1 humanized antibody #1: humanized IgG1 antibody with CDRs of the mouse anti-CAPRIN-1 monoclonal antibody (heavy chain SEQ ID NO: 114, light chain SEQ ID NO: 115) (antibody, listed as Mus musculus)
heavy: GPELVKPGASVKMSCKASGYTFTSYVMHWVKQKPGQGLEWIGYINPYNDGTKYNEKFKGKATLTSDKSSSTAYMELSSLTSEDSAVYYCARRYYYGSSGGYFDVWAQDHVRT
light: DVQITQSPSYLAASPGETITINCRASKSISKYLAWYQEKPGKTNKLLIYSGSTLQSGIPSRFSGSGSGTDFTLTISSLEPEDFAMYYCQQHNEYPYTFGGGTKLEIKR
- tumor volume when the tumor volume of the negative control was defined as 100% [3]: 52%
- tumor volume when the tumor volume of the negative control was defined as 100% ([1]; antibody alone 10 mg/kg once a week): 40%
- reactivity with the cell membrane surface of cancer cells (fluorescence intensity vs IgG control) [4]: reacted strongly
- reactivity with the cell membrane surface of cancer cells (fluorescence intensity vs IgG control) [5]: reacted strongly
